Experiments:
[1] = biological target: T1, ferroportin (Fpn) (Mus musculus, UniProt Q9JHI9); assay: Hepcidin Internalization Assay (J774); type: cell-based; details: average of multiple measurements; inhibition of TMR-hepcidin (25 nM) internalization into J774 cells; read-out: J774 IC50
T1 construct: host or cells: J774 mouse macrophage cell line, Fe(III)-NTA induced
T1 sequence (Q9JHI9 1-570): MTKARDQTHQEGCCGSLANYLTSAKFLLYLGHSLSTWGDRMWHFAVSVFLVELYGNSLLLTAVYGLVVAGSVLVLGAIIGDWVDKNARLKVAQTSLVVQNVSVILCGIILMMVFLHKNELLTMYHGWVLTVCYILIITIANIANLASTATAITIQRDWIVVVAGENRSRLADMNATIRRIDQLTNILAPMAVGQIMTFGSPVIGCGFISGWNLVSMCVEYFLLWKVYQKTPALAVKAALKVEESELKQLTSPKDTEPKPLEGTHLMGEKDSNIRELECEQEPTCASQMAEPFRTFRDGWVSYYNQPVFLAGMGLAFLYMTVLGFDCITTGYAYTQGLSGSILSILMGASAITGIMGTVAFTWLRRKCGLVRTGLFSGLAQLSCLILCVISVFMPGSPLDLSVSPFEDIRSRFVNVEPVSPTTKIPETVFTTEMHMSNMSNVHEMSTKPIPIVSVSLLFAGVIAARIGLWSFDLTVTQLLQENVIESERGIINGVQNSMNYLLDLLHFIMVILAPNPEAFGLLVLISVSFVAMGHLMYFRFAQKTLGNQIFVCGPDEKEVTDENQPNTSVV
Excerpt: This cellular assay allows quantification of the binding of hepcidin to ferroportin (Fpn) through microscopic detection of internalization of a fluorescently labeled hepcidin into J774 cells. […] Binding of hepcidin to Fpn triggers internalization and degradation of both hepcidin and Fpn. However, the TMR (6-carboxytetramethylrhodamine) fluorophore attached to hepcidin remains associated with the cell after degradation of the hepcidin peptide backbone. Therefore, microscopic detection of ceH associated TMR fluorescence is a measure of hepcidin binding to Fpn and internalization of hepcidin and Fpn. If TMR-hepcidin is prevented from binding to Fpn, cellular TMR fluorescence remains low (Dürrenberger et al, 2013). The effect of small molecular weight Fpn inhibitor compounds in this assay was evaluated in vitro as described below.
J774 cells, harvested from ca. 80% confluent cultures, were plated at 8×10^5 cells/ml in complete medium (DMEM, 10% FBS, 1% Penicillin-Streptomycin) containing 200 μM Fe(III)NTA (nitrilotriacetic acid), 100 μl per well of 96 well MicroClear plates (Greiner; Cat. 655090) and grown at 37° C. with 5% CO2. After overnight incubation, cells were washed 3 times with pre-warmed DMEM w/o phenol red, 30 μl/well of DMEM w/o phenol red was added after the final wash and 10 μl/well of dilution series of test compounds were added in triplicates. […] Cells were incubated in a total volume of 50 μl at 37° C. with 5% CO2 for 2 hours, then Hoechst 33342 dye was added to a final concentration of 0.5 μg/ml to stain nuclei and further incubated for 10 min. at 37° C. with 5% CO2. Cells were washed 3 times with PBS and fixed in 100 μl of 4% paraformaldehyde in PBS for 15 min. at room temperature. After removal of the paraformaldehyde solution, cells were washed 3 times with PBS leaving 100 μl per well and the plates were sealed with foil plate seal. TMR (530-550 nm excitation/575-625 nm emission/400 ms exposure time) and Hoechst 33342 (360-370 nm excitation/420-460 nm emission/10 ms exposure time) fluorescence images were acquired using a ScanR plate imager (Olympus) with a 20× high NA objective. Four pictures were acquired per well and fluorescence channel covering ca. 1500 cells per well. The acquired image data was analysed with the ScanR image analysis software. Image analysis included detection of nuclei (Hoechst 33342 fluorescence), identification of cell-associated regions, application of a virtual channel and thresholding for rolling-ball-type background reduction, followed by application of the Sum(Mean) algorithm to measure the TMR fluorescence associated with cells as a quantitative measure for internalized TMR-hepcidin. IC50 values were calculated with the Sum(Mean) raw data using “log(inhibitor) vs. response” curve fitting of Prism 5 software (GraphPad Software Inc., version 5.02).

[2] = biological target: T2, human Fpn (Homo sapiens, UniProt Q9NP59); assay: Biophysical Ferroportin-Hepcidin Binding Assay (fluorescence polarization); details: average of multiple measurements; 1 μM human Fpn, 20 nM TMR-hepcidin; read-out: FP IC50
T2 construct: FLAG (C); made in house; host or cells: Pichia pastoris
T2 sequence (Q9NP59 1-571): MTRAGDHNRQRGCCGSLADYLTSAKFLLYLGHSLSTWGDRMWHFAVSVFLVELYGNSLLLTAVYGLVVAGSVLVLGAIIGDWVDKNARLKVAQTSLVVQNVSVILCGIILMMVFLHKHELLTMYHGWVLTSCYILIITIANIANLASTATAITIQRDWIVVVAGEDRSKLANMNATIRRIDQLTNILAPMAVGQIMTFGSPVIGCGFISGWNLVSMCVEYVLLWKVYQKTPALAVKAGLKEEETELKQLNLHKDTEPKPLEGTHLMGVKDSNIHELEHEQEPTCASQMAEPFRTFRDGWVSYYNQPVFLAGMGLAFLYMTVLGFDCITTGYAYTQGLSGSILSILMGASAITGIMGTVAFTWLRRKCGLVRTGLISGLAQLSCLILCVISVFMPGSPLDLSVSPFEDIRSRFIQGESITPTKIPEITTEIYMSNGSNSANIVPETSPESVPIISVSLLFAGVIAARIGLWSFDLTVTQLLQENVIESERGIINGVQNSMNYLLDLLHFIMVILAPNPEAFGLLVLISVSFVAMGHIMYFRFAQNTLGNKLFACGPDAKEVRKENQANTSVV
Procedure: This biophysical assay was developed to confirm inhibition of hepcidin binding to ferroportin (Fpn) more directly. Incubation of TMR-hepcidin with purified human Fpn isolated from Pichia pastoris yeast cells expressing human Fpn with a C-terminal FLAG affinity tag (Bonaccorsi di Patti, 2014) leads to increased fluorescence polarization (FP) of the TMR-hepcidin ligand. Small molecular weight Fpn inhibitors were tested for inhibition of binding of TMR-hepcidin to Fpn, as detected by dose-dependent decrease of the TMR FP signal, as described in detail below.
8 μl of serial dilutions of test compounds were added in duplicates to reach final Fpn and TMR-hepcidin concentrations of 1 μM and 20 nM, respectively. Plates were incubated for 90 minutes at room temperature and parallel (S) and perpendicular (P) fluorescence was measured in a Synergy H1 fluorescence reader (BioTek). FP values were calculated in mP according to the following formula.

Compound	IC50 [1] [µM]	IC50 [2] [µM]
Cn1cc(C(=O)NCc2ncccc2F)nc1CCNCc1nc2ccccc2[nH]1 [Example 210]	4.91	1.88
CN(C(=O)c1csc(CCNCc2nc3ccccc3[nH]2)n1)c1ccccc1 [Example 19]	10	10.2
O=C(NCc1ncccc1F)c1csc(C2CCN(CCc3nc4ccccc4[nH]3)C2)n1 (stereo not shown) [Example 214]	14.1	3.19
O=C(NCc1ncccc1CO)c1csc(CCNCc2nc3ccccc3[nH]2)n1 [Example 110]	1.7	3.42
O=C(NCc1ccccc1)c1csc(CCNCc2nc3cccnc3[nH]2)n1 [Example 33]	3.62	17.2
O=C(NCc1cccnn1)c1coc(C2CN(CCc3nc4c(F)cccc4[nH]3)C2)n1 [Example 261]	0.554	0.44
CC(C)(CNCCc1nc2ccccc2[nH]1)c1nc(C(=O)NCc2ncccc2F)cs1 [Example 242]	8.92	27.8
O=C(c1csc(CCNCc2nc3ccccc3[nH]2)n1)N1CCCCC1 [compound 14]	4.9	14.9
CN(Cc1ccccc1)C(=O)c1csc(CCNCc2nc3ccccc3[nH]2)n1 [Example 17]	6.4	3.53
CC1(c2nc(C(=O)NCc3ncccc3F)cs2)CN(CCc2nc3ccccc3[nH]2)C1 [Example 212]	8.51	3.76
O=C(CCNCc1nc2ccccc2[nH]1)NCC(=O)NCc1ncccc1F [compound 172]	3.93	3.4
O=C(CC(=O)NCc1ncccc1F)NCCNCc1nc2ccccc2[nH]1 [compound 149]	6.25	17
O=C(NCc1ccccc1)c1csc(CCNCc2nc3cc(F)ccc3[nH]2)n1 [Example 31]	1.1	0.94
CN(C)c1ccccc1CNC(=O)c1csc(CCNCc2nc3ccccc3[nH]2)n1 [Example 70]	0.53	1.06
CN(C)C(=O)c1csc(CCNCc2nc3ccccc3[nH]2)n1 [Example 22]	17.2	14.2
O=C(NCc1cccnc1)c1csc(CCNCc2nc3ccccc3[nH]2)n1 [Example 35]	0.19	2.16

Compound	IC50 [1] [µM]	IC50 [2] [µM]
O=C(NCc1ccncc1)c1csc(CCNCc2nc3ccccc3[nH]2)n1 [Example 36]	0.25	3.65
O=C(NCc1ccccc1)c1csc(CCNCc2ncc[nH]2)n1 [Example 20]	9.4	9.61
O=C(NCc1ccnc(N2CCOCC2)c1)c1csc(CCNCc2nc3ccccc3[nH]2)n1 [Example 96]	2.97	7.29
O=C(NCc1ncc(F)cc1F)c1csc(CNCCCc2nc3ccccc3[nH]2)n1 [Example 124]	6.33	3.5
CC(NC(=O)c1csc(CCNCc2nc3ccccc3[nH]2)n1)c1ccccc1 (stereo not shown) [Example 73]	0.37	1
O=C(Nc1ncccc1F)c1csc(CCNCc2nc3ccccc3[nH]2)n1 [Example 77]	0.35	2.81
C=C(C)c1sc(CCNCc2nc3ccccc3[nH]2)nc1C(=O)NCc1ncccc1F [Example 177]	4.2	15.4
COc1cc(CNC(=O)c2csc(CCNCc3nc4ccccc4[nH]3)n2)ccn1 [Example 104]	0.9	1.76
O=C(NCc1nc2ccccc2[nH]1)c1csc(CCNCc2nc3ccccc3[nH]2)n1 [Example 60]	2.39	0.974
CN(CCc1nc2ccccc2[nH]1)CCc1nc(C(=O)NCc2ncccc2F)co1 [Example 223]	1.9	2.68
CC(C)N(C(=O)c1csc(CCNCc2nc3ccccc3[nH]2)n1)C1CCCCC1 [Example 25]	2.2	3.93
O=C(NCc1cccnc1F)c1csc(CCNCc2nc3ccccc3[nH]2)n1 [Example 103]	2.37	2.52
CC(NC(=O)c1csc(CCNCc2nc3ccccc3[nH]2)n1)c1ccccn1 (stereo not shown) [Example 80]	0.345	2.28
O=C(NCc1ncccc1F)[C@@H]1CCN(CCNCc2nc3ccccc3[nH]2)C1 [compound 204]	3.3	1.63
O=C(NCc1ncccc1F)c1cccc(CCNCCc2nc3ccccc3[nH]2)c1 [Example 235]	0.91	0.295
Cn1cc(CNC(=O)c2csc(CCNCc3nc4ccccc4[nH]3)n2)cn1 [Example 91]	2.07	12.1

From patent publication US10738041B2, “Ferroportin inhibitors” (Vifor (International) AG, priority 2015, dated 2020)
